Columns and labels:
MCF7 (Breast) = experiment: In vitro one dose primary anticancer assay; type: cell-based, human; settings: one dose at 10^−4 molar concentration
Description: (§1) Cytotoxicity: 7-methoxy-8-[3′-(4″-acridonylcarboxamido)propyl]-oxy-(11aS)1,2,3,11a-tetrahydro-5H-pyrrolo[2,1-c][1,4]benzodiazepin-5-one of formula IV was evaluated for primary anti-cancer activity (Table 1) and in vitro against sixty human tumour cells derived from nine cancer types (leukemia, non-small-cell lung, colon, CNS, melanoma, ovarian, prostate, and breast cancer). For each compound, dose response curves for each cell line were measured at a minimum of five concentrations at 10 fold dilutions. A protocol of 48 h continuous drug expose was used and a sulforhodamine B (SRB) protein assay was used to estimate cell viability or growth. The concentration causing 50% cell growth inhibition (GI50), total cell growth inhibition (TGI, 0% growth) and 50% cell death (LC50, −50% growth) compared with the control was calculated.

NCI-H460 (Lung) = experiment: In vitro one dose primary anticancer assay; type: cell-based, human; settings: one dose at 10^−4 molar concentration
Description: as §1

SF-268 (CNS) = experiment: In vitro one dose primary anticancer assay; type: cell-based, human; settings: one dose at 10^−4 molar concentration
Description: as §1

sixty human tumour cells = experiment: NCI in vitro cytotoxicity, SRB assay, mean graph midpoints; type: cell-based; settings: 48 h continuous drug exposure
Description: as §1

Breast cancer cell lines = experiment: NCI in vitro cytotoxicity, SRB assay, cancer type average; type: cell-based, human; settings: average of six to nine cell lines
Description: as §1
(§2) Each cancer type represents the average of six to nine different cancer cell lines.

CNS cancer cell lines = experiment: as above; type: cell-based, human; settings: average of six to nine cell lines
Description: as §1, §2

Colon cancer cell lines = experiment: as above; type: cell-based, human; settings: average of six to nine cell lines
Description: as §1, §2

[1] = test system: Melanoma cancer cell lines; experiment: as above; type: cell-based, human; settings: average of six to nine cell lines
Description: as §1, §2

[2] = test system: Ovarian cancer cell lines; experiment: as above; type: cell-based, human; settings: average of six to nine cell lines
Description: as §1, §2

Renal cancer cell lines = experiment: as above; type: cell-based, human; settings: average of six to nine cell lines
Description: as §1, §2

[3] = test system: non-small-cell lung cancer cell lines; experiment: as above; type: cell-based, human; settings: average of six to nine cell lines
Description: as §1, §2

CNS cancer (SNB-75) = experiment: NCI in vitro cytotoxicity, SRB assay; type: cell-based, human; settings: SNB-75 CNS; read-out: potency at the LC50 level
Description: as §1

[4] = test system: breast cancer (MDA-MB-435); experiment: NCI in vitro cytotoxicity, SRB assay; type: cell-based, human; settings: MDA-MB-435 breast; read-out: potency at the LC50 level
Description: as §1

colon cancer (HCC-2998) = experiment: NCI in vitro cytotoxicity, SRB assay; type: cell-based, human; settings: HCC-2998 colon; read-out: potency at the LC50 level
Description: as §1

[5] = test system: melanoma cancer (UACC-62); experiment: NCI in vitro cytotoxicity, SRB assay; type: cell-based, human; settings: UACC-62 melanoma; read-out: potency at the LC50 level
Description: as §1

[6] = test system: melanoma cancer cell line LOXIMVI; experiment: NCI in vitro cytotoxicity, SRB assay; type: cell-based, human; settings: read-out: potency at the LC50 level
Description: as §1

[7] = test system: melanoma cancer cell line M14; experiment: NCI in vitro cytotoxicity, SRB assay; type: cell-based, human; settings: read-out: potency at the LC50 level
Description: as §1

renal cancer (SN12C) = experiment: NCI in vitro cytotoxicity, SRB assay; type: cell-based, human; settings: read-out: potency at the LC50 level
Description: as §1

For `COc1cc2c(cc1OCCCNC(=O)c1cccc3c(=O)c4ccccc4[nH]c13)N=C[C@@H]1CCCN1C2=O` [Compound IV, 7-methoxy-8-[3′-(4″-acridonylcarboxamido)propyl]-oxy-(11aS)1,2,3,11a-tetrahydro-5H-pyrrolo[2,1-c][1,4]benzodiazepin-5-one], the “Growth percentages (Breast) MCF7” value (MCF7 (Breast)) was 0%, the “Growth percentages (Lung) NCI-H460” value (NCI-H460 (Lung)) was 0% and the “Growth percentages (CNS) SF-268” value (SF-268 (CNS)) was 10%. For the same compound, the “Log10 LC50 mean graph midpoint (MG_MID)” value (sixty human tumour cells; 50% cell death) was −4.32, the “Log10 GI50 mean graph midpoint (MG_MID)” value (sixty human tumour cells; 50% cell growth inhibition) was −7.73 and the “Log10 TGI mean graph midpoint (MG_MID)” value (sixty human tumour cells; total cell growth inhibition) was −5.56. The “Log LC50 (concentration in mol/L causing 50% lethality)” value (Breast cancer cell lines) was −4.40 mol/L, the “Log LC50 (concentration in mol/L causing 50% lethality)” value (CNS cancer cell lines) was −4.425 mol/L and the “Log LC50 (concentration in mol/L causing 50% lethality)” value (Colon cancer cell lines) was −4.33 mol/L. For the same compound, the “Log LC50 (concentration in mol/L causing 50% lethality)” value [1] was −5.09 mol/L, the “Log LC50 (concentration in mol/L causing 50% lethality)” value [2] was −4.012 log(mol/L) and the “Log LC50 (concentration in mol/L causing 50% lethality)” value (Renal cancer cell lines) was −4.27 mol/L. For the same compound, the “Log LC50 (concentration in mol/L causing 50% lethality)” value [3] was −4.14 log10(mol/L), the LC50 (concentration causing 50% cell death) (CNS cancer (SNB-75)) was 100 nM and the CC50 [4] was 100 nM. The LC50 (concentration killing 50% of cells) (colon cancer (HCC-2998)) was 100 nM, the LC50 (concentration causing 50% cell death) [5] was less than 10 nM and the CC50 [6] was greater than 10000 nM. For the same compound, the LC50 [7] was greater than 10000 nM and the LC50 (concentration causing 50% cell death) (renal cancer (SN12C)) was greater than 10000 nM.

— patent US7056913B2, “C8—linked pyrrolo[2,1-c][1,4]benzodiazepine-acridone/acridine hybrids” (Council of Scientific and Industrial Research, priority 2004, dated 2006)
